Data: US9453226B2, “Protection of cells from Alu-RNA-induced degeneration and inhibitors for protecting cells” (UNIVERSITY OF KENTUCKY RESEARCH FOUNDATION, priority 2011, dated 2016)
Read-outs that look alike come from different tables or passages of the source.

Legend:
human RPE cells [1] = conditions: human RPE cells transfected with pAlu
Method: All cell cultures were maintained at 37° C. and 5% CO2. Primary mouse RPE cells were isolated as previously described (Yang et al., 2009) and grown in Dulbecco Modified Eagle Medium (DMEM) supplemented with 20% FBS and standard antibiotics concentrations. Primary human RPE cells were isolated as previously described (Yang et al., 2008) and maintained in DMEM supplemented with 10% FBS and antibiotics. HeLa cells were maintained in DMEM supplemented with 20% FBS and standard antibiotics concentrations. THP-1 cells were cultured in RPMI 1640 medium supplemented with 10% FBS and antibiotics.
MTS assays were performed using the CellTiter 96 AQueous One Solution Cell Proliferation Assay (Promega) according to the manufacturer's instructions. For examining the cytoprotective effect of glycine in Alu RNA induced cell death, human RPE cells were transfected with pNull/pAlu. At 6 h post-transfection the cells were incubated with complete media containing glycine (5 mM) or vehicle, and cell viability was assessed after 24 h. Similarly, human RPE cells primed with LPS (5 μg/ml for 6 h) were treated with ATP (25 μM) in the presence of glycine containing media (5 mM). 30 min post ATP cell viability was assessed as described above.
MTS assays were performed using the CellTiter 96 AQueous One Solution Cell Proliferation Assay (Promega) according to the manufacturer's instructions.

miRNA = miRNA abundance in Dicer1-depleted mouse RPE cells; format: cell-based
Excerpt: Total RNA containing miRNAs was polyadenylated and reverse transcribed using universal primer using the All-In-One miRNA q-RT-PCR Detection Kit (GeneCopoeia) according to the manufacturer's specifications using a universal reverse primer in combination with the following forward primers: mouse miR-184 (5′-[…]-3′); mouse miR-221/222 (5′-[…]-3′); mouse miR-320a (5′-[…]-3′), and mouse miR-484 (5′-[…]-3′). miRNA levels were normalized to levels of U6 snRNA (5′-[…]-3′) using the 2^−ΔΔCt method. Detection was achieved by SYBR green qPCR with the following conditions: 95° C. for 10 min followed by 40 cycles of 95° C. for 10 s, 60° C. for 20 s and 72° C. for 20 s. Amplicon specificity was assessed by melt curve analysis and unique bands by agarose gel electrophoresis.

[2] = system: Dicer1 f/f mouse RPE cells; experiment: Loss of viability of Dicer1 f/f mouse RPE cells treated with Ad-Cre; format: cell-based
Method: Cells were plated at density of 15×10^3/cm^2 and after 16 h, at approximately 50% confluence, were infected with AdCre or AdNull (Vector Laboratories) with a multiplicity of infection of 1,000.

human RPE cells [3] = experiment: Loss of human RPE cell viability induced by DICER1 antisense; format: cell-based
IL-18 = IL-18 maturation in RPE cell lysates of wild-type mice (Western blot); format: in vivo; conditions: WT mice, peptide intravitreous
Method: siRNAs formulated in siRNA buffer (20 mM KCL, 0.2 mM MgCl2 in HEPES buffer at pH 7.5; Dharmacon) or phosphate buffered saline (PBS; Sigma-Aldrich); the TLR4 antagonist Ultra Pure Rhodobacter sphaeroides LPS (LPS-RS, InvivoGen), a peptide inhibitor of MyD88 homodimerization IMG-2005 (IMGENEX), control inhibitor (IMGENEX), recombinant IL-18 (Medical & Biological Laboratories), neutralizing rat antibodies against mouse IL-1β (IMGENEX), neutralizing rat antibodies against mouse IL-18 (Medical & Biological Laboratories), isotype control IgGs (R&D Systems or eBioscience as appropriate), Caspase-1 inhibitor Z-WEHD-FMK (R&D Systems), Caspase control inhibitor Z-FA-FMK (R&D Systems), DPI (Enzo Life Sciences), Mito-TEMPO (Enzo Life Sciences), MitoQ and dTPP (both adsorbed to cyclodextrin and provided by M.P. Murphy, MRC Mitochondrial Biology Unit), and gp91ds-tat and scrambled gp91 ds-tat (both Anaspec), were dissolved in phosphate buffered saline (PBS; Sigma-Aldrich) or dimethyl sulfoxide (DMSO; Sigma-Aldrich), and injected into the vitreous humor in a total volume of 1 μL with a 33-gauge Exmire microsyringe (Ito Corporation). […] As a control, Luc siRNA-chol (17+2 nt) was used with identical dosages. […]

Substance | pAlu-induced human RPE cell death / loss of cell viability (human RPE cells [1]; listed as MyD88-inhibitory peptide) | pAlu-induced human RPE cell death / loss of cell viability (human RPE cells [1]; listed as MyD88i) | miRNA abundance versus control peptide (miRNA) | loss of cell viability in Dicer1 f/f mouse RPE cells treated with Ad-Cre [2] | loss of human RPE cell viability induced by DICER1 antisense (AS) (human RPE cells [3]) | pAlu-induced IL-18 maturation (IL-18) | pAlu-induced IL-18 maturation (IL-18; listed as Caspase-1 peptide inhibitor)
DRQIKIWFQNRRMKWKKRDVLPGT [MyD88 inhibitory peptide] | inhibited cell death | rescued | No significant difference | rescues | rescues | – | –
Z-WEHD-FMK | – | – | – | – | – | blocked IL-18 maturation | impaired
